Assay results: US20190091180A1, “DOSAGE REGIMEN FOR A S1P RECEPTOR AGONIST” (Novartis AG, priority 2008, published 2019)

What was measured:
multiple sclerosis = conditions: humans; cited from earlier work
healthy subjects [1] = conditions: administration of 1.25 mg of FTY720; cited from earlier work
healthy subjects [2] = assay: Double-blind, placebo-controlled dose titration clinical study; heart rate by continuous telemetry; assay type: in vivo, human
Experimental: A single-center, double-blind, placebo-controlled, dose titration, once-daily, multiple-oral-dose clinical study in healthy subjects was conducted to evaluate the effect of a dosage regimen of FTY720 according to the present invention. A total of 36 subjects were randomly assigned to one of the three groups. Each subject participated in a screening period of maximal 21 days, a baseline period (Day −1), a 9-day dose-administration period, and clinical study completion assessments on Day 10. Subjects were assigned to one of the three groups (dose titration regimen group, placebo control group, or active control group) and received the once daily dose in a double-blinded manner (Table 1). In the dose titration group, increasing once daily doses of Compound A (FTY720), starting at 0.125 mg o.d. and ending at the maximal therapeutic dose of 1.25 mg o.d. were administered on days 1 to 9 of the study according to the schedule shown in Table 1 below. The placebo control group received placebo through out the duration of the study and the active control group received a once daily dose of 1.25 mg of FTY720 on days 1 to 9. [table] Pharmacodynamic and safety assessments are performed up to 24 hours post last dose. Heart rate is monitored via telemetry on Day −1 through Day 10, 24 hour after the last dosing. Heart rhythm is assessed via 24 hr continuous holter monitoring on Day −1, Day 1, and Day 9. For each dosing for each subject, the drug is administered as closely as practically possible to the time administered on Day −1. Safety assessments includes physical examinations, vital signs and body measurements, 12-lead ECG evaluations, standard clinical laboratory evaluations hematology, blood chemistry, urinalysis, adverse event and serious adverse event monitoring. Systolic and diastolic blood pressure and pulse are measured after the subject has rested quietly in the sitting position for at least 3 minutes. Blood pressure is measured at the same arm on each occasion. Standard 12-lead ECGs are recorded at Screening, baseline, 4 hours post-dose on Day 1 and Day 8, and at Study Completion. The variables recorded are: date and time of ECG, heart rate, PR interval, QT interval (uncorrected), QTcB, QRS duration. The overall interpretation is collected with a Yes/No statement to confirm if any clinically relevant abnormalities are present, which needs to be specified further. Subjects remain on continuous telemetry, starting before breakfast on Day −1 and proceeding throughout the administration period up to Day 10 (24 hour after the last dose). Over this ten day duration of continuous heart rate collection for each subject, one heart rate value is obtained every minute (‘minute unit heart rate’), representing the average heart rate value over that minute. The heart rate database for each subject contains approximately 14,400 data points (10 days×24 hr×60 min). 24-hour continuous Holter-ECG data are captured via a digital Holter monitor (12-lead, on Days −1, 1, 6, and 8), and transferred for interpretation and reporting. Holter monitoring starts approximately at 7:00 and the time of dose administration is regarded as the time “0 hours”. Holter “cuts” are derived from the dataset at 1 hour intervals starting from Day −1 and continuing for 24 hours or the end of the cleaned Holter monitoring dataset. Cardiac conduction intervals: arrhythmia monitoring includes the frequency and duration of sinus pauses (>2 sec and >3 sec) and atrio-ventricular blocks. Frequency and duration of atrial and ventricular ectopy and sinus rhythm are also recorded. The daily chronotropic effect is defined as the percent decrease in HRmin (minimum heart rate) between two consecutive days. It is calculated on days 1 to 9.

CCCCCCCCc1ccc(CCC(N)(CO)CO)cc1.Cl [FTY720, 2-amino-2-[2-(4-octylphenyl)ethyl]propane-1,3-diol]
efficacy in the treatment of multiple sclerosis (multiple sclerosis): has been demonstrated in humans
decrease in heart rate (healthy subjects [1]): approximately 8 beats/min (BPM)
additional decrease in daily average heart rate from Day 1 to Day 2 (healthy subjects [2]; active control group, 1.25 mg once daily, Day 1 to Day 2): approximately 3 BPM
decrease in daily average heart rate from Day -1 to Day 1 (healthy subjects [2]; active control group, 1.25 mg once daily, Day -1 to Day 1): approximately 8 BPM
gradual decrease in daily average heart rate per day (healthy subjects [2]; dose titration group 0.125/0.25/0.5/1.25 mg o.d., over the eight day course of the titration): 1-2 BPM per day
heart rate on initiation of 1.25 mg on Day 8 compared to the preceding days (healthy subjects [2]; dose titration group, Day 8, first 1.25 mg dose): does not result in dip in heart rate
daily minimum heart rates during the course of the study (healthy subjects [2]; dose titration regimen compared with 1.25 mg once daily group): improved daily minimum heart rates
negative chronotropic effect on Day 1 of treatment initiation (healthy subjects [2]; dose titration regimen versus 1.25 mg from Day 1): attenuates the negative chronotropic effect
